Assay results reported in the NIST ThermoML archive (doi:10.1021/je200140m).
Numbers after ± are expanded uncertainties.

Tests used:
[1] = Liquid, Closed cell (Static) method
[2] = refractive index (Na D-line) (dimensionless); settings: 101.33 kPa, Liquid, Standard Abbe refractometry

**Q.** For `COC` [dimethyl ether], which “vapor or sublimation pressure” value ([1]; 308.1 K) is on record?
**A.** 788 ± 2 kPa

**Q.** And the “vapor or sublimation pressure” value ([1]; 308.13 K)?
**A.** 785.2 ± 1.8 kPa

**Q.** And the “vapor or sublimation pressure” value ([1]; 335.65 K)?
**A.** 1539.6 ± 2.6 kPa

**Q.** For `CCCCCC` [hexane], which “vapor or sublimation pressure” value ([1]; 308.12 K) is on record?
**A.** 30.8 ± 0.8 kPa

**Q.** And the “vapor or sublimation pressure” value ([1]; 335.66 K)?
**A.** 83 ± 1 kPa

**Q.** What about the refractive index ([2]; 298.1 K) of the same molecule?
**A.** 1.37514 ± 0.00073

**Q.** What does the source list for `CO` [methanol]?
**A.** vapor or sublimation pressure ([1]; 358.93 K): 221.4 ± 1 kPa; refractive index ([2]; 293.1 K): 1.32853 ± 0.00073

**Q.** With `COC=O` [methyl methanoate] as the molecule, how does the “vapor or sublimation pressure” value ([1]; 308.11 K) read?
**A.** 114.7 ± 0.9 kPa

**Q.** And the “vapor or sublimation pressure” value ([1]; 358.92 K)?
**A.** 550.4 ± 1.4 kPa

**Q.** What about the refractive index ([2]; 293.1 K) of the same molecule?
**A.** 1.34359 ± 0.00076
